In patent US20060276464A1, “Diarylsulfone sulfonamides and use thereof” (Wyeth, priority 2005, published 2006):
Read-outs that look alike come from different tables or passages of the source.

Columns and labels:
[1] = biological target: T1, SFRP-1 (Homo sapiens, UniProt Q8N474); test: Fluorescence polarization binding assay (competitive displacement of a probe compound from SFRP-1); conditions: fluorescence anisotropy, 45 nM SFRP-1, 20 nM probe;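 further: test compound competes with a fluorescent probe held by SFRP-1, seen as a drop in probe anisotropy after incubation in darkness, with anisotropy as function of rising compound dose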
T1 sequence (Q8N474 32-314): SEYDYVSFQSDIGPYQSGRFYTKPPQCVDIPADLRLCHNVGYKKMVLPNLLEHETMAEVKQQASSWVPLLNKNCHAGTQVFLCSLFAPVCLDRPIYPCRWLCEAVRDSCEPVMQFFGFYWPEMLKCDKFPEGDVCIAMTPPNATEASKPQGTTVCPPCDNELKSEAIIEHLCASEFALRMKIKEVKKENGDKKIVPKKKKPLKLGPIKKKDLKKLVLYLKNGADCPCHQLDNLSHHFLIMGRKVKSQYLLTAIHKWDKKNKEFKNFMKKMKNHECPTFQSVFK

[2] = biological target: T1, SFRP-1; test: Cell-based assay for in vitro measurement of SFRP-1/SARP2 antagonist activity (U2OS cells co-transfected with 16x TCF-tk-Luciferase reporter, Wnt and hSFRP-1); conditions: for fold induction at 15 µM / fold induction at 30 µM / fold induction at 10 µM / fold induction at 20 µM: U2OS; for fold induction at 10 µM: read-out: Fold Induction with SFRP-1, U2OS cells, single dose 10 μM, luciferase reporter, fold induction over SFRP-1 control;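 on all read-outs here: U2OS cells co-transfected with a TCF-tk luciferase reporter, a Wnt vector, hSFRP-1 or empty vector and CMV-βgal, luciferase luminescence read in cell lysates alongside βgal activity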
[3] = read-out: Fold Induction with SFRP-1, Conc 15 μM, with SFRP-1, fold induction over SFRP-1 control, single dose
[4] = read-out: Fold Induction without SFRP-1, Conc 15 μM, without SFRP-1, single dose
[5] = read-out: Fold Induction with SFRP-1, Conc 30 μM, with SFRP-1, fold induction over SFRP-1 control, single dose
[6] = read-out: Fold Induction without SFRP-1, Conc 30 μM, without SFRP-1, single dose

| SMILES | fold induction at 15 µM [2, 3] | fold induction at 15 µM [2, 4] | also measured |
| --- | --- | --- | --- |
| CN(CCNS(=O)(=O)c1cc(S(=O)(=O)c2ccccc2)ccc1C(F)(F)F)C(=O)N(C)C1CCN(C(=O)OC(C)(C)C)CC1 [Example 989, tert-butyl 4-[methyl({methyl[2-({[5-(phenylsulfonyl)-2-(trifluoromethyl)phenyl]sulfonyl}amino)ethyl]amino}carbonyl)amino]piperidine-1-carboxylate] |  |  | IC50 [1]: 3 µM |
| CC(C)c1ccc(S(=O)(=O)c2ccc3c(c2)C(C)(C)OC(=O)N3)cc1S(=O)(=O)NCCc1ccccn1 [Example 515, 5-[(4,4-dimethyl-2-oxo-1,4-dihydro-2H-3,1-benzoxazin-6-yl)sulfonyl]-2-isopropyl-N-(2-pyridin-2-ylethyl)benzenesulfonamide] |  |  | fold induction at 15 µM ([2]; read-out: Fold Induction with SFRP-1, Conc 15 μM, single dose, luciferase reporter, fold induction over SFRP-1 control, cells with SFRP-1): 1.8; fold induction at 15 µM ([2]; read-out: Fold Induction without SFRP-1, Conc 15 μM, single dose, luciferase reporter, cells without SFRP-1 (specificity control)): 1 |
| Cc1ccc(S(=O)(=O)c2cccc(-c3ccccc3)c2)cc1S(=O)(=O)NCCc1ccccn1 [Example 434, 5-(biphenyl-3-ylsulfonyl)-2-methyl-N-(2-pyridin-2-ylethyl)benzenesulfonamide] | 2.1 | 1.1 |  |
| CC(=O)NCCNS(=O)(=O)c1cc(S(=O)(=O)c2ccc(F)cc2)ccc1C [Example 168, N-{2-[({5-[(4-fluorophenyl)sulfonyl]-2-methylphenyl}sulfonyl)amino]ethyl}acetamide] | 1.7 | 0.9 |  |
| CCc1ccc(S(=O)(=O)c2ccccc2)cc1S(=O)(=O)NCCc1ccc(OC)c(OC)c1 [Example 144, N-[2-(3,4-dimethoxyphenyl)ethyl]-2-ethyl-5-(phenylsulfonyl)benzenesulfonamide] | 3 | 1.1 |  |
| COCCNS(=O)(=O)c1cccc(S(=O)(=O)c2ccccc2)c1 [Example 197, N-(2-methoxyethyl)-3-(phenylsulfonyl)benzenesulfonamide] |  |  | fold induction at 30 µM [2, 5]: 1.1; fold induction at 30 µM [2, 6]: 1.2 |
| Cc1ccc(S(=O)(=O)c2ccc(F)cc2)cc1S(=O)(=O)NCCCN1CCN(C)CC1 [Example 179, 5-[(4-fluorophenyl)sulfonyl]-2-methyl-N-[3-(4-methylpiperazin-1-yl)propyl]benzenesulfonamide] | 2 | 1.1 |  |
| COc1ccc(S(=O)(=O)c2ccccc2)cc1S(=O)(=O)NCCc1ccc(S(N)(=O)=O)cc1 [Example 154, N-{2-[4-(aminosulfonyl)phenyl]ethyl}-2-methoxy-5-(phenylsulfonyl)benzenesulfonamide] | 1.4 | 1.3 |  |
| O=S(=O)(NCCc1ccccn1)c1cccc(S(=O)(=O)c2ccccc2)c1 [Example 184, 3-(phenylsulfonyl)-N-(2-pyridin-2-ylethyl)benzenesulfonamide] |  |  | fold induction at 30 µM [2, 5]: 1.2; fold induction at 30 µM [2, 6]: 0.9 |
| Cc1ccc2c(c1)CCCN2C(=O)CCNS(=O)(=O)c1cc(S(=O)(=O)c2ccccc2)ccc1C [Example 669, 2-methyl-N-[3-(6-methyl-3,4-dihydroquinolin-1(2H)-yl)-3-oxopropyl]-5-(phenylsulfonyl)benzenesulfonamide] |  |  | fold induction at 10 µM [2]: 0.9 |
| Cc1ccc(S(=O)(=O)NCCCn2ccnc2)cc1S(=O)(=O)c1ccccc1 [Example 317, N-[3-(1H-imidazol-1-yl)propyl]-4-methyl-3-(phenylsulfonyl)benzenesulfonamide] | 1.2 | 1.1 |  |
| Cc1ccc(S(=O)(=O)c2ccc(Cl)cc2)cc1S(=O)(=O)NC[C@@H](C)c1ccccc1 [Example 265, 5-[(4-chlorophenyl)sulfonyl]-2-methyl-N-[(2S)-2-phenylpropyl]benzenesulfonamide] | 1.1 | 1.1 | Fold Induction with SFRP-1 ([2]; Conc 15 μM, with SFRP-1, fold induction over SFRP-1 control, single dose): 1.2 fold; Fold Induction without SFRP-1 ([2]; Conc 15 μM, without SFRP-1, single dose): 1 fold |
| C#CCN(CCc1ccccc1F)S(=O)(=O)c1cc(S(=O)(=O)c2ccc(C)cc2)ccc1C [Example 277, N-[2-(2-fluorophenyl)ethyl]-2-methyl-5-[(4-methylphenyl)sulfonyl]-N-prop-2-ynylbenzenesulfonamide] | 1.8 | 1 |  |
| Cc1ccc(S(=O)(=O)c2ccc(C)c(S(=O)(=O)NCCc3ccccc3F)c2)cc1 [Example 138, N-[2-(2-fluorophenyl)ethyl]-2-methyl-5-[(4-methylphenyl)sulfonyl]benzenesulfonamide] | 2.7 | 0.9 | fold induction at 30 µM [2, 5]: 1.1; fold induction at 30 µM [2, 6]: 0.5 |
| Cc1ccc(S(=O)(=O)c2ccc(F)cc2)cc1S(=O)(=O)NCCC#N [Example 161, N-(2-cyanoethyl)-5-[(4-fluorophenyl)sulfonyl]-2-methylbenzenesulfonamide] | 2.7 | 1 |  |
| Cc1cc(S(=O)(=O)c2ccccc2)cc(S(=O)(=O)NC2CCNCC2)c1C [Example 922, 2,3-dimethyl-5-(phenylsulfonyl)-N-piperidin-4-ylbenzenesulfonamide] |  |  | fold induction at 10 µM [2]: 1.1 |
| CCOc1ccc(CCNS(=O)(=O)c2cc(S(=O)(=O)c3ccccc3)ccc2C)cc1OC [Example 55, N-[2-(4-ethoxy-3-methoxyphenyl)ethyl]-2-methyl-5-(phenylsulfonyl)benzenesulfonamide] |  |  | fold induction at 30 µM [2, 5]: 3.1; fold induction at 30 µM [2, 6]: 0.9 |
| Cc1ccc(S(=O)(=O)c2ccc(NCCCOC(C)C)cc2)cc1S(=O)(=O)NCCCn1ccnc1 [Example 367, N-[3-(1H-imidazol-1-yl)propyl]-5-({4-[(3-isopropoxypropyl)amino]phenyl}sulfonyl)-2-methylbenzenesulfonamide] | 2.2 | 0.9 |  |
| Cc1ccc(S(=O)(=O)c2ccc(Cl)cc2)cc1S(=O)(=O)NC[C@H](C)c1ccccc1 [Example 257, 5-[(4-chlorophenyl)sulfonyl]-2-methyl-N-[(2R)-2-phenylpropyl]benzenesulfonamide] |  |  | fold induction at 20 µM ([2]; read-out: Fold Induction with SFRP-1, Conc 20 μM, with SFRP-1, fold induction over SFRP-1 control, single dose): 2.4; fold induction at 20 µM ([2]; read-out: Fold Induction without SFRP-1, Conc 20 μM, without SFRP-1, single dose): 1 |
| COC(=O)c1ccc(CNS(=O)(=O)c2cc(S(=O)(=O)c3ccccc3)ccc2C(C)C)cc1 [Example 951, methyl 4-[({[2-isopropyl-5-(phenylsulfonyl)phenyl]sulfonyl}amino)methyl]benzoate] |  |  | fold induction at 10 µM [2]: 1.8 |
| O=S(=O)(NCCCn1ccnc1)c1cccc(S(=O)(=O)c2ccccc2)c1 [Example 199, N-[3-(1H-imidazol-1-yl)propyl]-3-(phenylsulfonyl)benzenesulfonamide] |  |  | fold induction at 30 µM [2, 5]: 1.1; fold induction at 30 µM [2, 6]: 1 |

Now from value to molecule, other results behind:

| fold induction at 15 µM [2, 3] | fold induction at 15 µM [2, 4] | SMILES | also measured |
| --- | --- | --- | --- |
| 2.5 | 0.9 | COCCNS(=O)(=O)c1cc(S(=O)(=O)c2ccc(F)cc2)ccc1C [Example 175, 5-[(4-fluorophenyl)sulfonyl]-N-(2-methoxyethyl)-2-methylbenzenesulfonamide] |  |
| 2.4 | 1.3 | Cc1ccc([S+]([O-])c2ccccc2)cc1S(=O)(=O)NCCCn1ccnc1 (stereo not shown) [Example 346, N-[3-(1H-imidazol-1-yl)propyl]-2-methyl-5-(phenylsulfinyl)benzenesulfonamide] |  |
| 3 | 1.1 | Cc1ccc(S(=O)(=O)c2ccccc2)cc1S(=O)(=O)NC1CCNCC1 [Example 447, 2-methyl-5-(phenylsulfonyl)-N-piperidin-4-ylbenzenesulfonamide] |  |
| 1.8 | 1.3 | CCN(CC)CCNS(=O)(=O)c1cc(S(=O)(=O)c2ccccc2)ccc1C [Example 213, N-[2-(diethylamino)ethyl]-2-methyl-5-(phenylsulfonyl)benzenesulfonamide] |  |
| 2.6 | 0.8 | CCc1ccc(S(=O)(=O)c2ccccc2)cc1S(=O)(=O)NCCOC [Example 229, 2-ethyl-N-(2-methoxyethyl)-5-(phenylsulfonyl)benzenesulfonamide] |  |
| 1.4 | 1.4 | COc1ccc(S(=O)(=O)c2ccccc2)cc1S(=O)(=O)NCCc1ccccc1F [Example 156, N-[2-(2-fluorophenyl)ethyl]-2-methoxy-5-(phenylsulfonyl)benzenesulfonamide] |  |
| 1.3 | 0.8 | Cc1ccc(S(=O)(=O)c2ccc(C#N)cc2)cc1S(=O)(=O)NCCc1ccccn1 [Example 428, 5-[(4-cyanophenyl)sulfonyl]-2-methyl-N-(2-pyridin-2-ylethyl)benzenesulfonamide] |  |
| 3.1 | 1.1 | CCOc1ccc(CCNS(=O)(=O)c2cc(S(=O)(=O)c3ccccc3)ccc2CC)cc1OC [Example 149, N-[2-(4-ethoxy-3-methoxyphenyl)ethyl]-2-ethyl-5-(phenylsulfonyl)benzenesulfonamide] |  |
